Molecules are shown by their SMILES. Counter-ions that a name gives are not always drawn.

For test [1], the system named is bacterial strains that express the class D cephalosporinase OXA-15. Nature of the test: Standard BLI potentiation MIC / synergy MIC (sMIC) assays run in the presence of a β-lactam, OXA-15 expressing strains. It counts as cell-based, E. coli. The following applies: BLI in combination with a β-lactam; comparison with Avibactam (comparator compound CCC). The gist of the method:
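Isogenic E. coli DH10B carrying cloned β-lactamase genes on pBR322-derived plasmid (blaTEM-1 promoter, tetracycline 25 μg/mL) tested by CLSI broth microdilution in CAMHB. Test compound and β-lactam each diluted and combined; MIC reported in presence of β-lactam.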

Test [2] has as its system bacterial strains that express KPC β-lactamases. Nature of the test: Standard BLI potentiation MIC / synergy MIC (sMIC) assays run in the presence of a β-lactam, KPC expressing strains. In kind it is cell-based. Conditions: more active for at least one KPC strain and/or better spectrum of activity than Avibactam; BLI in combination with a β-lactam. From the text: Unless otherwise indicated, the activity of the BLI compounds can be described by the MIC value obtained from a Synergy MIC assay or a BLI potentiation assay (e.g as described herein), both of which are run in the presence of a β-lactam.
A set of β-lactamase expressing isogenic E. coli strains was constructed by cloning a β-lactamase gene into a customized derivative of pBR322 (GenBank Accession Number J01749) and transforming the engineered plasmids into E. coli. The NdeI restriction site within the plasmid backbone of pBR322 was removed to generate pBR322 ΔNdeI. The pBR322 ΔNdeI vector itself, minus the blaTEM-1 gene, was amplified using two primers: (1) pBR-Pbla 5′-cgcatatgactettectttttcaatattattg-3, SEQ ID 1, a primer with an engineered NdeI restriction site at the 3′ end of the blaTEM-1 promoter and (2) pBR-vec-1 5′-[…]-3′, SEQ ID 2, a primer with an engineered BamHI restriction site at the 3′ end of the blaTEM-1 open reading frame. The chloramphenicol resistance gene, cat, was generated by PCR amplification from pKD3 (GenBank Accession Number AY048742) using primers with an engineered NdeI restriction site at the 5′ end (Pbla-cat 5′-[…]-3′, SEQ ID 3) and an engineered BamHI restriction site at the 3′ end (Vec-1-cat 5′-[…]-3′, SEQ ID 4) of the resistance gene. The two PCR products, pBR322 ΔNdeI and cat were ligated together generating pBR-CBST (pBR322 ΔNdeI ΔTEM-1::cat Seq. ID 5) which retains both the pBR322 tetracycline resistance cassette, tetA, and the plasmid origin of replication but the blaTEM-1 gene was replaced by the cat gene.
Using this engineering strategy a number of plasmids producing β-lactamase genes from different classes (see below) were generated using synthetic genes with an engineered NdeI restriction site at the 5′ end and BamHI restriction site at the 3′ end of each gene (GenScript). Both the synthetic β-lactamase genes and cat gene were ligated into the NdeI/BamHI sites of the pBR322 ΔNdeI PCR product and transformed into electrocompetent E. coli ElectroMax DH10B (Invitrogen/Life Technologies). E. coli DH10B harboring the recombinant plasmids were selected on LB agar (supplemented with 25 μg/mL tetracycline) and single isolated colonies were then inoculated into 5 mL LB media (supplemented with 25 μg/mL tetracycline), and incubated at 37° C. with aeration (250 rpm) for 18 hrs. The cultures were frozen back at −80° C. in 20% glycerol. The DNA sequence of the cloned β-lactamase genes was confirmed. The β-lactamase gene expression in the recombinant E. coli strains was driven by the blaTEM-1 promoter in the pBR-CBST plasmid and was characterized by MIC profiling of the E. coli recombinant strains against comparator β-lactam/BLI combinations in broth microdilution assay.
The experimental protocol was performed according to Clinical and Laboratory Standards Institute (CLSI) guidelines with modifications as described below (CLSI guidelines can be derived from the CLSI document M07-A9 published in January 2012: “Methods for Dilution Antimicrobial Susceptibility Tests for Bacteria That Grow Aerobically; Approved Standard-Ninth Edition”).
To prepare for MIC testing, frozen glycerol stocks of clinical isolates (Klebsiella pneumoniae, Eschericia coli, Enterobacter spp, Citrobacter spp, or Pseudomonas aeruginosa) were used to streak for isolated colonies on rich, non-selective, tryptic soy agar containing 5% sheep's blood (TSAB). Frozen glycerol stocks of laboratory engineered, isogenic E. coli strains, which contain cloned β-lactamase expressing plasmids were used to streak for isolated colonies on rich, selective LB agar supplemented with 25 μg/mL tetracycline to maintain the plasmid. All strains were incubated at 37° C. for 18-24 hrs.
On the day of testing, primary cultures were started by scraping off 5-10 colonies from the TSAB plates containing clinical strains or the tetracycline supplemented LB plates containing engineered strains. […]

On to `CNCCCc1nnc([C@@H]2CC[C@@H]3CN2C(=O)N3OS(=O)(=O)O)o1` [Compound 734, (2S,5R)-2-(5-(3-(methylamino)propyl)-1,3,4-oxadiazol-2-yl)-7-oxo-1,6-diazabicyclo[3.2.1]octan-6-yl hydrogen sulfate], for which the “activity against bacterial strains that express the class D cephalosporinase OXA-15, compared with Avibactam” value in test [1] was “more active than Avibactam”. In test [2], the “activity and/or spectrum of activity against bacterial strains that express KPC β-lactamases, compared with Avibactam” value is “more active than Avibactam”.

On to `NCCCCc1nnc([C@@H]2CC[C@@H]3CN2C(=O)N3OS(=O)(=O)O)o1` [Compound 735, (2S,5R)-2-(5-(4-aminobutyl)-1,3,4-oxadiazol-2-yl)-7-oxo-1,6-diazabicyclo[3.2.1]octan-6-yl hydrogen sulfate], for which the “activity against bacterial strains that express the class D cephalosporinase OXA-15, compared with Avibactam” value in test [1] is listed as “more active than Avibactam”. Also, in test [2], the “activity and/or spectrum of activity against bacterial strains that express KPC β-lactamases, compared with Avibactam” value is on record as “more active than Avibactam”.

Regarding `O=C1N2C[C@@H](CC[C@H]2c2nnc(CCNCCO)o2)N1OS(=O)(=O)O` [Compound 736, (2S,5R)-2-(5-(2-((2-hydroxyethyl)amino)ethyl)-1,3,4-oxadiazol-2-yl)-7-oxo-1,6-diazabicyclo[3.2.1]octan-6-yl hydrogen sulfate], in test [1], the “activity against bacterial strains that express the class D cephalosporinase OXA-15, compared with Avibactam” value was “more active than Avibactam”. For the same compound, the “activity and/or spectrum of activity against bacterial strains that express KPC β-lactamases, compared with Avibactam” value in test [2] is given as “more active than Avibactam”.

In the case of `CC(C)(N)Cc1nnc([C@@H]2CC[C@@H]3CN2C(=O)N3OS(=O)(=O)O)o1` [Compound 737, (2S,5R)-2-(5-(2-amino-2-methylpropyl)-1,3,4-oxadiazol-2-yl)-7-oxo-1,6-diazabicyclo[3.2.1]octan-6-yl hydrogen sulfate], the “activity against bacterial strains that express the class D cephalosporinase OXA-15, compared with Avibactam” value in test [1] is “more active than Avibactam”. Further, the “activity and/or spectrum of activity against bacterial strains that express KPC β-lactamases, compared with Avibactam” value in test [2] was “more active than Avibactam”.

`N=C(N)Nc1nnc([C@@H]2CC[C@@H]3CN2C(=O)N3OS(=O)(=O)O)o1` [Compound 738, (2S,5R)-2-(5-guanidino-1,3,4-oxadiazol-2-yl)-7-oxo-1,6-diazabicyclo[3.2.1]octan-6-yl hydrogen sulfate]: in test [1], the “activity against bacterial strains that express the class D cephalosporinase OXA-15, compared with Avibactam” value is on record as “more active than Avibactam”. In addition, the “activity and/or spectrum of activity against bacterial strains that express KPC β-lactamases, compared with Avibactam” value in test [2] is listed as “more active than Avibactam”.

Consider `N=C(N)NC1(Cc2nnc([C@@H]3CC[C@@H]4CN3C(=O)N4OS(=O)(=O)O)o2)CC1` [Compound 739, (2S,5R)-2-(5-((1-guanidinocyclopropyl)methyl)-1,3,4-oxadiazol-2-yl)-7-oxo-1,6-diazabicyclo[3.2.1]octan-6-yl hydrogen sulfate], for which, in test [1], the “activity against bacterial strains that express the class D cephalosporinase OXA-15, compared with Avibactam” value was “more active than Avibactam”. Moreover, the “activity and/or spectrum of activity against bacterial strains that express KPC β-lactamases, compared with Avibactam” value in test [2] was “more active than Avibactam”.

In the case of `O=C1N2C[C@@H](CC[C@H]2c2nnc([C@H]3[C@@H]4CNC[C@@H]43)o2)N1OS(=O)(=O)O` [Compound 740, (2S,5R)-2-(5-(3-azabicyclo[3.1.0]hexan-6-yl)-1,3,4-oxadiazol-2-yl)-7-oxo-1,6-diazabicyclo[3.2.1]octan-6-yl hydrogen sulfate], the “activity against bacterial strains that express the class D cephalosporinase OXA-15, compared with Avibactam” value in test [1] is on record as “more active than Avibactam”. The “activity and/or spectrum of activity against bacterial strains that express KPC β-lactamases, compared with Avibactam” value in test [2] is on record as “more active than Avibactam”.

Consider `N=C(N)N1CC(Cc2nnc([C@@H]3CC[C@@H]4CN3C(=O)N4OS(=O)(=O)O)o2)C1` [Compound 741, (2S,5R)-2-(5-((1-carbamimidoylazetidin-3-yl)methyl)-1,3,4-oxadiazol-2-yl)-7-oxo-1,6-diazabicyclo[3.2.1]octan-6-yl hydrogen sulfate], for which the “activity against bacterial strains that express the class D cephalosporinase OXA-15, compared with Avibactam” value in test [1] is given as “more active than Avibactam”. Moreover, the “activity and/or spectrum of activity against bacterial strains that express KPC β-lactamases, compared with Avibactam” value in test [2] is “more active than Avibactam”.

With `O=C1N2C[C@@H](CC[C@H]2c2nnc(CCC3CNC3)o2)N1OS(=O)(=O)O` [Compound 742, (2S,5R)-2-(5-(2-(azetidin-3-yl)ethyl)-1,3,4-oxadiazol-2-yl)-7-oxo-1,6-diazabicyclo[3.2.1]octan-6-yl hydrogen sulfate], the “activity against bacterial strains that express the class D cephalosporinase OXA-15, compared with Avibactam” value in test [1] is “more active than Avibactam”. The “activity and/or spectrum of activity against bacterial strains that express KPC β-lactamases, compared with Avibactam” value in test [2] is “more active than Avibactam”.

As for `O=C1N2C[C@@H](CC[C@H]2c2nnc(CCCC3CNC3)o2)N1OS(=O)(=O)O` [Compound 743, (2S,5R)-2-(5-(3-(azetidin-3-yl)propyl)-1,3,4-oxadiazol-2-yl)-7-oxo-1,6-diazabicyclo[3.2.1]octan-6-yl hydrogen sulfate], the “activity against bacterial strains that express the class D cephalosporinase OXA-15, compared with Avibactam” value in test [1] is given as “more active than Avibactam”. In addition, the “activity and/or spectrum of activity against bacterial strains that express KPC β-lactamases, compared with Avibactam” value in test [2] was “more active than Avibactam”.

As to `O=C1N2C[C@@H](CC[C@H]2c2nnc(COC3CNC3)o2)N1OS(=O)(=O)O` [Compound 744, (2S,5R)-2-(5-((azetidin-3-yloxy)methyl)-1,3,4-oxadiazol-2-yl)-7-oxo-1,6-diazabicyclo[3.2.1]octan-6-yl hydrogen sulfate], in test [1], the “activity against bacterial strains that express the class D cephalosporinase OXA-15, compared with Avibactam” value is “more active than Avibactam”. Further, the “activity and/or spectrum of activity against bacterial strains that express KPC β-lactamases, compared with Avibactam” value in test [2] is on record as “more active than Avibactam”.

Regarding `O=C1N2C[C@@H](CC[C@H]2c2nnc(CCNC3CNC3)o2)N1OS(=O)(=O)O` [Compound 745, (2S,5R)-2-(5-(2-(azetidin-3-ylamino)ethyl)-1,3,4-oxadiazol-2-yl)-7-oxo-1,6-diazabicyclo[3.2.1]octan-6-yl hydrogen sulfate], in test [1], the “activity against bacterial strains that express the class D cephalosporinase OXA-15, compared with Avibactam” value is on record as “more active than Avibactam”. The “activity and/or spectrum of activity against bacterial strains that express KPC β-lactamases, compared with Avibactam” value in test [2] is “more active than Avibactam”.

As for `N=C(N)N1CC(NCc2nnc([C@@H]3CC[C@@H]4CN3C(=O)N4OS(=O)(=O)O)o2)C1` [Compound 746, (2S,5R)-2-(5-(((1-carbamimidoylazetidin-3-yl)amino)methyl)-1,3,4-oxadiazol-2-yl)-7-oxo-1,6-diazabicyclo[3.2.1]octan-6-yl hydrogen sulfate], in test [1], the “activity against bacterial strains that express the class D cephalosporinase OXA-15, compared with Avibactam” value is “more active than Avibactam”. Further, the “activity and/or spectrum of activity against bacterial strains that express KPC β-lactamases, compared with Avibactam” value in test [2] is recorded as “more active than Avibactam”.

Regarding `N=C(N)N[C@H]1C[C@@H](c2nnc([C@@H]3CC[C@@H]4CN3C(=O)N4OS(=O)(=O)O)o2)C1` [Compound 749, (2S,5R)-2-(5-((1s,3R)-3-guanidinocyclobutyl)-1,3,4-oxadiazol-2-yl)-7-oxo-1,6-diazabicyclo[3.2.1]octan-6-yl hydrogen sulfate], in test [1], the “activity against bacterial strains that express the class D cephalosporinase OXA-15, compared with Avibactam” value is listed as “more active than Avibactam”. Also, in test [2], the “activity and/or spectrum of activity against bacterial strains that express KPC β-lactamases, compared with Avibactam” value is on record as “more active than Avibactam”.
